Columns and labels:
Format in all cases: biochemical
Trametes villosa laccase = molecular target: T1, Trametes villosa laccase (Trametes villosa, UniProt Q99044); experiment: Bleaching of Direct Blue 1 with Trametes villosa laccase with and without enhancing agents; conditions: 10 μM enhancer, 30° C.
T1 construct: made in house; host or cells: Trametes villosa CBS 678.70 (native producer), purified from culture broth
T1 sequence (Q99044 22-520): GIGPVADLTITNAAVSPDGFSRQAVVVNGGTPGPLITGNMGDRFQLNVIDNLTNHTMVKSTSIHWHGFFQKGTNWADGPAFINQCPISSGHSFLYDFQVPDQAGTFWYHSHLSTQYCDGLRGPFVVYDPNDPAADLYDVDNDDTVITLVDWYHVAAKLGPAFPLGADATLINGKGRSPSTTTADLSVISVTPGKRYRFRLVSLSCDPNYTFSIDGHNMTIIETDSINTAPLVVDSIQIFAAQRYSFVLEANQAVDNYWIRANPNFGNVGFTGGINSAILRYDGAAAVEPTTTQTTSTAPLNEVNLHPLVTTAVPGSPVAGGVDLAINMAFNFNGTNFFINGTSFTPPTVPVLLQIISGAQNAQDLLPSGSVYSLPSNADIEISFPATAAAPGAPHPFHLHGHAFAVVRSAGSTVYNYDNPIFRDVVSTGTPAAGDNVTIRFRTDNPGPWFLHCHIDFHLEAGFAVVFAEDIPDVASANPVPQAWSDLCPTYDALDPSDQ
Procedure: Laccase obtained from Trametes villosa: 800 ml culture broth of Trametes villosa, CBS 678.70, was filtered with filter aid to give a clear filtrate, which was concentrated and washed by ultrafiltration on a membrane with a cut-off of 6-8 kDa. One ml samples of concentrated preparation was applied onto a Q-Sepharose HP column (Pharmacia, Sweden) equilibrated with 0.1 M fosfate pH 7, and the laccase was eluted with a flat NaCl gradient around 0.25 M. Fractions with laccase activity from 10 runs were pooled and concentrated by ultrafiltration to an activity of 500 LACU/ml.
The following conditions were used: […]
Reagents were mixed in a 1 cm thermostated cuvette at 30° C. and the bleaching was started by addition of enzyme.
The bleaching was detected spectrophotometrically at 610 nm, which is the absorption peak of DB1. After 5 sec. bleaching was followed for 4 minutes.
Bleaching of Direct Blue 1 with Trametes villosa laccase, obtained as described above, at pH 5.5 (1.6 mg/l) and pH 7.0 (16 mg/l): […]

[1] = molecular target: T2, Coprinus cinereus peroxidase (CiP) (Coprinopsis cinerea, UniProt P28314); experiment: Initial bleaching of Direct Blue 1 with Coprinus cinereus peroxidase and enhancers; conditions: 5 μM enhancer, 20 μM H2O2, 30° C.
T2 construct: made in house
T2 sequence (P28314 21-363): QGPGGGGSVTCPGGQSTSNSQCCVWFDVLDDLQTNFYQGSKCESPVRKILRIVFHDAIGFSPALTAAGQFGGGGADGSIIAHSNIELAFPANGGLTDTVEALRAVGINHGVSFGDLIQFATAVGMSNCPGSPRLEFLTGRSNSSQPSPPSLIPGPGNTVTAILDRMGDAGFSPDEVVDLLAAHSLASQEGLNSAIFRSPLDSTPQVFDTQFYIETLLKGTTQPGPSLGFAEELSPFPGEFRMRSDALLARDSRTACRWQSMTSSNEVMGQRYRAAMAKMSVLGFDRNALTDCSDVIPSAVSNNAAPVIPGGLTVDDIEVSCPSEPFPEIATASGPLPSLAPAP
Procedure: A Coprinus cinereus peroxidase (CiP), obtained as described in WO 9412621 was used.
Dilutions of CiP were made in a solution of 0.15 gram/l of Triton X-405.
(§1) The bleaching rate of Direct Blue 1 (DB1) by purified CiP was determined using the following conditions: […]
(§2) Reagents were mixed in a thermostated cuvette at 30° C. and the bleaching was started by addition of hydrogen peroxide. The bleaching was detected spectrophotometrically at 610 nm, which is the wavelength of the absorption peak of DB1. Bleaching was followed for 1 minute, and the initial reduction in absorbance, --ΔmAbs/minute, was determined.

[2] = molecular target: T3, Coprinus cinereus laccase (Coprinopsis cinerea, UniProt Q9Y780); experiment: Bleaching of Direct Blue 1 using Coprinus cinereus laccase with/without enhancing agents at pH 5.5-8.5; conditions: C. cinereus laccase 1 mg/l, 10 μM enhancing agent, 30° C.
T3 sequence (Q9Y780 19-539): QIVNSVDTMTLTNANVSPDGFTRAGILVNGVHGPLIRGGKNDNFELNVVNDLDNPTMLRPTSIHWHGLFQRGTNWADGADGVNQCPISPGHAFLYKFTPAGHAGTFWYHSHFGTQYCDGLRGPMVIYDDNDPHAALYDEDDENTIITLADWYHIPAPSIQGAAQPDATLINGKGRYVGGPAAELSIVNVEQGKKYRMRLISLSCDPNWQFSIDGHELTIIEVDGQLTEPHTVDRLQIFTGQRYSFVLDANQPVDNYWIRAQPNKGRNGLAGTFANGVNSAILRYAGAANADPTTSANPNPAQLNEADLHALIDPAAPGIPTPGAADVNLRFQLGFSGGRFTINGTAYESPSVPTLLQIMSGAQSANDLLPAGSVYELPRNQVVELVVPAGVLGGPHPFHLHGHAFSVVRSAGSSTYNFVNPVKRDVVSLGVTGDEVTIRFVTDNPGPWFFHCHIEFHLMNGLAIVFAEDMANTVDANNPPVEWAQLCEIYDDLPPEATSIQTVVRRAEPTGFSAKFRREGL
Procedure: Bleaching of the dye Direct Blue 1 at various pH values was conducted using Coprinus cinereus laccase and one of the following enhancing agents:
The laccase was obtained in the following way: Coprinus cinereus (IFO 30116--freely available to the public from Institute of Fermentation, Osaka (IFO) under the indicated deposit number) was inoculated from a PDA agar slant (PDA: 39 g/l potato dextrose agar) into a 100 ml shake flask containing medium A (Medium A is described in Example 3). The culture was cultivated for 6 days at 26° C. and 100 rpm. A 10-liter fermentor containing medium A was inoculated with the 100 ml culture broth. The fermentation ran for 6 days at 26° C. and 100 rpm. The culture broth was filtrated and concentrated by ultrafiltration. Further purification was carried out using hydrophobic interaction chromatography followed by anionic exchange chromatography. This process resultated in a preparation with a laccase activity of 3.6 LACU/ml. The estimated purity was >80% on a protein basis.
The bleaching rate of DB1 was determined using the owing conditions: […]
(§3) Reagents were mixed in a 1 ml thermostated cuvette at 30° C. and the bleaching was started by addition of the laccase.
The bleaching was followed spectrophotometrically at 610 nm, which is the wavelength of the absorption peak of DB1 with readings every 5 sec. for a period of 5 minutes. The initial bleaching rate was determined from the first linear part of the absorbance curve.

[3] = molecular target: T3, Coprinus cinereus laccase; experiment: Bleaching of gradually added Acid Blue 45 with Coprinus cinereus laccase with and without enhancing agent; conditions: phosphate/borate buffer pH 10; 35° C.; laccase 10 mg/l; acetosyringone 10 μM
Procedure: To simulate such a process, however, a magnetically stirred beaker was used as the reaction vessel and dye was added gradually from a stock solution (using a Metrohm 725 dosimat). The solution was monitored spectrophotometrically using a Zeiss multichannel spectrometer (MCS) equipped with a fibre-optics immersion probe.
Stock solutions of acetosyringone was prepared in a suitable water/ethanol mixture. Stock solutions of the anthraquinone dye Acid Blue 45 were made with water.
The laccase was recovered from a 10-liter fermentation of Coprinus cinereus (IFO 30116) as described in Example 4.
The following conditions were used in the experiment:
Medium and pH: […]/50 mM phosphate/borate buffer at pH 10
Acetosyringone (when applicable): 10 μM
Dye addition program: linear addition at a rate of ca 0.34 bs/40 min, referring to the absorbance of Acid Blue 45 at its maximum absorbance wavelength (590 nm for Acid Blue 45).
The following symbols are used: (I): Only dye addition; (II): Dye addition in the presence of Laccase; (III): Dye addition in the presence of Laccase+acetosyringone.

[4] = tested on: laccase obtained from Panaeolus papilionaceus; experiment: Bleaching of Direct Blue 1 using Panaeolus papilionaceus laccase and methylsyringate; conditions: 10 μM methylsyringate, 30° C.
Procedure: (§4) Bleaching of the dye Direct Blue 1 at various pH values was conducted using a laccase obtained from Coprinus comatus, Coprinus friesii, Coprinus plicatilis, Panaeolus papilionaceus or Psathyrella condolleana and methylsyringate.
(§5) After fermentation the culture broths were centrifugated and the supernatants were used in the tests described below.
(§6) The bleaching rate of DB1 was determined using the following conditions: […]
as §3
(§7) The bleaching was followed spectrophotometrically at 610 nm, which is the wavelength of the absorption peak of DB1, with readings every 5 sec. for a period of 5 minutes. The initial bleaching rate was determined from the first linear part of the absorbance curve.

[5] = tested on: laccase obtained from Coprinus comatus; experiment: Bleaching of Direct Blue 1 using Coprinus comatus laccase and methylsyringate; conditions: 10 μM methylsyringate, 30° C.
Procedure: as §4, §5, §6, §3, §7

[6] = molecular target: T2, Coprinus cinereus peroxidase (CiP); experiment: Initial bleaching of Chicago Sky Blue 6B (CSB) with Coprinus cinereus peroxidase and enhancers; conditions: 5 μM enhancer, 20 μM H2O2, 30° C.
Procedure: as §1, §2
Bleaching tests were performed in exactly the same way as described in Example 2 except that instead of using DB1 Chigaco Sky Blue (CSB) (obtainable from Aldrich) was used, and the following enhancers were tested: […]

[7] = tested on: laccase obtained from Coprinus plicatilis; experiment: Bleaching of Direct Blue 1 using Coprinus plicatilis laccase and methylsyringate; conditions: 10 μM methylsyringate, 30° C.
Procedure: as §4, §5, §6, §3, §7

[8] = tested on: laccase obtained from Psathyrella condolleana; experiment: Bleaching of Direct Blue 1 using Psathyrella condolleana laccase and methylsyringate; conditions: 10 μM methylsyringate, 30° C.
Procedure: as §4, §5, §6, §3, §7

[9] = tested on: laccase obtained from Coprinus friesii; experiment: Bleaching of Direct Blue 1 using Coprinus friesii laccase and methylsyringate; conditions: 10 μM methylsyringate, 30° C.
Procedure: as §4, §5, §6, §3, §7

[10] = pH 5.5, Trametes villosa laccase 1.6 mg/l
[11] = pH 7.0, Trametes villosa laccase 16 mg/l

With COc1cc(C=O)cc(OC)c1O [syringaldehyde] the “DB1 bleaching in 4 minutes” value (Trametes villosa laccase; [10]) was 438 -ΔmAbs/4 min, the “DB1 bleaching in 4 minutes” value (Trametes villosa laccase; [11]) was 112 -ΔmAbs/4 min and the “Initial Bleaching of Direct Blue 1 with CiP” value ([1]; pH 8.5, 0.08 mg/l CiP) was 151 -ΔmAbs/minute. For the same compound, the “Initial Bleaching of Direct Blue 1 with CiP” value ([1]; pH 10.5, 0.16 mg/l CiP) was 4 -ΔmAbs/minute, the “Initial bleaching rate of DB1” value ([2]; pH 5.5) was 29 -ΔmAbs/minute and the “Initial bleaching rate of DB1” value ([2]; pH 7.0) was 79 -ΔmAbs/minute. For the same compound, the “Initial bleaching rate of DB1” value ([2]; pH 8.5) was 28 -ΔmAbs/minute.

COc1cc(C(C)=O)cc(OC)c1O [acetosyringone] was tested, and the “Bleaching effect on gradually added Acid Blue 45 (FIG. 1)” value [3] was “enhanced”, the “DB1 bleaching in 4 minutes” value (Trametes villosa laccase; [10]) was 447 -ΔmAbs/4 min and the “DB1 bleaching in 4 minutes” value (Trametes villosa laccase; [11]) was 242 -ΔmAbs/4 min. For the same compound, the “Initial Bleaching of Direct Blue 1 with CiP” value ([1]; pH 8.5, 0.08 mg/l CiP) was 239 -ΔmAbs/minute, the “Initial Bleaching of Direct Blue 1 with CiP” value ([1]; pH 10.5, 0.16 mg/l CiP) was 1 -ΔmAbs/minute and the “Initial bleaching rate of DB1” value ([2]; pH 5.5) was 28 -ΔmAbs/minute. For the same compound, the “Initial bleaching rate of DB1” value ([2]; pH 7.0) was 94 -ΔmAbs/minute and the “Initial bleaching rate of DB1” value ([2]; pH 8.5) was 50 -ΔmAbs/minute.

For COC(=O)c1cc(OC)c(O)c(OC)c1 [methylsyringate], the “Initial bleaching rate of DB1” value ([4]; Pan. papilionaceus laccase 4 LACU/l, pH 5.5) was 16 -ΔmAbs/minute, the “Initial bleaching rate of DB1” value ([4]; Pan. papilionaceus laccase 4 LACU/l, pH 7.0) was 19 -ΔmAbs/minute and the “Initial bleaching rate of DB1” value ([4]; Pan. papilionaceus laccase 20 LACU/l, pH 8.5) was 18 -ΔmAbs/minute. The “Initial bleaching rate of DB1” value ([5]; C. comatus laccase 4 LACU/l, pH 5.5) was 33 -ΔmAbs/minute, the “Initial bleaching rate of DB1” value ([5]; C. comatus laccase 4 LACU/l, pH 7.0) was 23 -ΔmAbs/minute and the “Initial bleaching rate of DB1” value ([5]; C. comatus laccase 20 LACU/l, pH 8.5) was 2 -ΔmAbs/minute. The “Initial Bleaching of CSB with CiP” value ([6]; pH 8.5, 0.08 mg/l CiP) was 211 -ΔmAbs/minute, the “Initial Bleaching of CSB with CiP” value ([6]; pH 10.5, 0.16 mg/l CiP) was 42 -ΔmAbs/minute and the “Initial bleaching rate of DB1” value ([7]; C. plicalitis laccase 4 LACU/l, pH 5.5) was 42 -ΔmAbs/minute. For the same compound, the “Initial bleaching rate of DB1” value ([7]; C. plicalitis laccase 4 LACU/l, pH 7.0) was 39 -ΔmAbs/minute, the “Initial bleaching rate of DB1” value ([7]; C. plicalitis laccase 20 LACU/l, pH 8.5) was 14 -ΔmAbs/minute and the “Initial bleaching rate of DB1” value ([8]; Ps. condolleana laccase 4 LACU/l, pH 5.5) was 45 -ΔmAbs/minute. The “Initial bleaching rate of DB1” value ([8]; Ps. condolleana laccase 4 LACU/l, pH 7.0) was 54 -ΔmAbs/minute, the “Initial bleaching rate of DB1” value ([8]; Ps. condolleana laccase 20 LACU/l, pH 8.5) was 43 -ΔmAbs/minute and the “Initial bleaching rate of DB1” value ([9]; C. friesii laccase 4 LACU/l, pH 5.5) was 40 -ΔmAbs/minute. The “Initial bleaching rate of DB1” value ([9]; C. friesii laccase 4 LACU/l, pH 7.0) was 55 -ΔmAbs/minute, the “Initial bleaching rate of DB1” value ([9]; C. friesii laccase 20 LACU/l, pH 8.5) was 61 -ΔmAbs/minute and the “Initial Bleaching of Direct Blue 1 with CiP” value ([1]; pH 8.5, 0.08 mg/l CiP) was 245 -ΔmAbs/minute. For the same compound, the “Initial Bleaching of Direct Blue 1 with CiP” value ([1]; pH 10.5, 0.16 mg/l CiP) was 8 -ΔmAbs/minute, the “Initial bleaching rate of DB1” value ([2]; pH 5.5) was 20 -ΔmAbs/minute and the “Initial bleaching rate of DB1” value ([2]; pH 7.0) was 94 -ΔmAbs/minute. The “Initial bleaching rate of DB1” value ([2]; pH 8.5) was 57 -ΔmAbs/minute.
